{"source": "paper PMC5556379", "about": "(Journal of medicinal chemistry, 2017)", "key": {"hiCE": {"molecular_target": "T1, hiCE (Homo sapiens, UniProt O00748)", "T1 sequence (O00748 27-559)": "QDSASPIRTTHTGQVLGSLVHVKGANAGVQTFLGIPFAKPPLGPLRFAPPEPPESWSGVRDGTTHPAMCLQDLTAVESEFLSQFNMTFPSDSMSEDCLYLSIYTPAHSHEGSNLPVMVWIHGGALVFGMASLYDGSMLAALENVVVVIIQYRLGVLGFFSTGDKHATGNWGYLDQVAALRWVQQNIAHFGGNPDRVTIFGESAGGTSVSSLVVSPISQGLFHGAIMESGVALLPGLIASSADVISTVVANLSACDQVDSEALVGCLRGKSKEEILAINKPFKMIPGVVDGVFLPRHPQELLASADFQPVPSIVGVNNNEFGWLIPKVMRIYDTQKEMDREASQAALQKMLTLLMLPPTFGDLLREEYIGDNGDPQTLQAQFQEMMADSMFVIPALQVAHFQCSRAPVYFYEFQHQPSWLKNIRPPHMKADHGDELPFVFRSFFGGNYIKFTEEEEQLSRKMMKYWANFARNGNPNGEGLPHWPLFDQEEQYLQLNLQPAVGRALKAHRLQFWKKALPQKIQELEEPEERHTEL", "assay_type": "cell-based", "conditions": "U373MG cells expressing hiCE; irinotecan as substrate"}, "hCE1": {"molecular_target": "T2, hCE1 (Homo sapiens, UniProt P23141)", "T2 sequence (P23141 18-567)": "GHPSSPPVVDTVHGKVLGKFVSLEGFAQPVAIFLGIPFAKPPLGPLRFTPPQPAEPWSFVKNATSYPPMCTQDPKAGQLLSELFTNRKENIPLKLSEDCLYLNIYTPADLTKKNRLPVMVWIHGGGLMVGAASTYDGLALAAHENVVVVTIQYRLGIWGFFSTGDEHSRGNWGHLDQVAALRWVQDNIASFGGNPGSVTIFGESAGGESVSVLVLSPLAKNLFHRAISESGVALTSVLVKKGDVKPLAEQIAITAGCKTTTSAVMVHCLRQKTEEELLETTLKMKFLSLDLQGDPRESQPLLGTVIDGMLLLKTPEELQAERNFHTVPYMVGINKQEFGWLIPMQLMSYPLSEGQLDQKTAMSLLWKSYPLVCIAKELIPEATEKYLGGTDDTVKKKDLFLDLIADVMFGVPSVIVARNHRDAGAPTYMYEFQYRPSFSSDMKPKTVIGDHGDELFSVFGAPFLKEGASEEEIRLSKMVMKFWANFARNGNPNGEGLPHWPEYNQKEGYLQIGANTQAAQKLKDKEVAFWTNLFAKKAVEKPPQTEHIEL", "conditions": "read-out: Ki with hCE1; cited from earlier work"}}}
{"smiles": "COc1ccc(N(C)C2=CC(=O)C(=O)c3ccccc32)cc1", "note": "[Compound 17, 4-((4-Methoxyphenyl)(methyl)amino)naphthalene-1,2-dione]", "values": [{"measurement": "inhibition of hiCE in cells (loss in 7-ethyl-10-hydroxycamptothecin production)", "setting": "hiCE", "result": "less than 23%"}]}
{"smiles": "Cc1ccc(N(C)C2=CC(=O)C(=O)c3ccccc32)cc1", "note": "[Compound 18, 4-((4-Methylphenyl)(methyl)amino)naphthalene-1,2-dione]", "values": [{"measurement": "inhibition of hiCE in cells (loss in 7-ethyl-10-hydroxycamptothecin production)", "setting": "hiCE", "result": "less than 23%"}]}
{"smiles": "Cc1cccc2c3c(ccc12)C1=C(C(=O)C3=O)[C@@H](C)CO1", "note": "[dihydrotanshinone]", "values": [{"measurement": "Ki", "setting": "hCE1", "result": 398, "unit": "nM"}]}
